This passage reports IC50, EC50 and AC50 results from ChEMBL document CHEMBL1201862, “PubChem BioAssay data set” (2004).

Activity calls are given as the source filed them.

The test system of one assay is J774.A1. The assay is described as follows: Confirmation of image-based Screening Assay for Inhibitors of Phagocytosis. [Related pubchem assays (depositor defined):AID1029, AID1643]. In kind it is functional, cell-based. The conditions noted are these: Mus musculus.
For assay [1], the system named is BJ. In words: BJ-TERT-LT-ST fibroblast viability loss – cell-based, RAS-independent, luminescence, dose response (AID 1935).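 Also: BJ fibroblasts immortalized with TERT plus LT and ST oncogenes.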 In kind it is functional. Conditions: Homo sapiens.
The nature of assay [2]: HEK-293T viability loss after treatment – luminescence, T-cell screen hits, cytotoxicity control for TCR NF-kB inhibitor project, dose response (AID 489026).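 Also: cells exposed to compound about 14 hours before the viability readout.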 Format: functional, cell-based.
In assay [3] the test system is BJ. In words: BJ-TERT fibroblast viability loss – cell-based, RAS-independent, luminescence, dose response (AID 1933). Format: functional. The conditions noted are these: Homo sapiens.
In assay [4] the test system is BJ. The assay is described as follows: cells. In kind it is functional, cell-based. The conditions noted are these: Homo sapiens.
Assay [5] is described as follows: DRD fibroblast viability loss – cell-based, non-viral oncogenic, luminescence, dose response (AID 1934). Format: functional. Conditions: Homo sapiens.
In assay [6] the target is T1, Neuropeptides B/W receptor type 1 (Homo sapiens, UniProt P48145).
T1 sequence (P48145 whole entry): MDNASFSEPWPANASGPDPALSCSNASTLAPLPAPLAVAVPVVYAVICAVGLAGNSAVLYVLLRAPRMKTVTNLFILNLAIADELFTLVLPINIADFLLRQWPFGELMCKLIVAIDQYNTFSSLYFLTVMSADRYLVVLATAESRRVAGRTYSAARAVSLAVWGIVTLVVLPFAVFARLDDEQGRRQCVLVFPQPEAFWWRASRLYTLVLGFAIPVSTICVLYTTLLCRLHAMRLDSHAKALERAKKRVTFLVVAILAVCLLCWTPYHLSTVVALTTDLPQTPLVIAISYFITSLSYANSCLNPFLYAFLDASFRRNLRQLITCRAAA
The assay is described as follows: Fluorescence-based dose response cell-based high throughput screening assay to identify antagonists of the G-protein coupled receptor 7 (GPR7). [Related pubchem assays: 1952 (Screening assay (GPR7 antagonists).), 1880 (Summary AID.)]. In kind it is functional.

In assay [7] the target is Heat shock protein HSP 90-alpha (Homo sapiens, UniProt P07900). Format: functional, organism-based.
Assay [8] deals with Melanin-concentrating hormone receptor 1 (Homo sapiens, UniProt Q99705). The assay is described as follows: Fluorescence-based counterscreen for antagonists of the G-protein coupled receptor 7 (GPR7): cell-based high throughput dose response assay to identify antagonists of the melanin-concentrating hormone receptor 1 (MCHR1). Format: functional. Background: The purpose of a counterscreen is to sort out artefacts and off-target activity.
Sequence of Melanin-concentrating hormone receptor 1 (Q99705 whole entry): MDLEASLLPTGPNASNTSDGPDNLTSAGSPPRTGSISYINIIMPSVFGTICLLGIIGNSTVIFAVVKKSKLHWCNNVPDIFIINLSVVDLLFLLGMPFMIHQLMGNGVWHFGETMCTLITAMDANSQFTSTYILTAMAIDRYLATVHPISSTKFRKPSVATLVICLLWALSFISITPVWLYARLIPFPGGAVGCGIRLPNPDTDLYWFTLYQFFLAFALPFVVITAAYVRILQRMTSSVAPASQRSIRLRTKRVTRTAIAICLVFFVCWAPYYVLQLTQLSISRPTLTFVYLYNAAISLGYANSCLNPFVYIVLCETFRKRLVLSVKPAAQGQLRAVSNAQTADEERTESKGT

In assay [9] the target is Lysosomal acid glucosylceramidase (Homo sapiens, UniProt P04062). The assay is described as follows: Dose response cell-based high throughput screening assay to identify enhancers of beta-glucosidase activity. [Related pubchem assays: 784 ]. In kind it is functional.
Sequence of Lysosomal acid glucosylceramidase (P04062 whole entry): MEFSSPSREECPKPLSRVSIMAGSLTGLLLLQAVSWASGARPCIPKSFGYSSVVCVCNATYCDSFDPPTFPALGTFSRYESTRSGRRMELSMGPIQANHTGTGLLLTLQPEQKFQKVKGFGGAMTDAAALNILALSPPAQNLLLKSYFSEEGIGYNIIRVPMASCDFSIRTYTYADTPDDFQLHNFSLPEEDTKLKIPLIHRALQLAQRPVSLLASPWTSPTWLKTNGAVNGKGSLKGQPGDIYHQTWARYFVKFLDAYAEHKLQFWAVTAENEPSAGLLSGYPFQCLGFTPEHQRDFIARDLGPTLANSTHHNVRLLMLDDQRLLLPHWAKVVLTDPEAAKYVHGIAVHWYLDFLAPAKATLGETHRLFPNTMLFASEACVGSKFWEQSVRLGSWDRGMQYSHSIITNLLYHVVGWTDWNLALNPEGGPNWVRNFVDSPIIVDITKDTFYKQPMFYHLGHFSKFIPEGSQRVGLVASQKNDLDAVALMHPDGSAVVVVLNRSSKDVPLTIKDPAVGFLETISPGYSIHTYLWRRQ
The target in assay [10] is Intestinal-type alkaline phosphatase (Homo sapiens, UniProt P09923). The assay is described as follows: Dose Response confirmation of uHTS hits from a small molecule inhibitors of human intestinal alkaline phosphatase via a luminescent assay. [Related pubchem assays (depositor defined):AID2544, AID2574]. Format: functional.
Sequence of Intestinal-type alkaline phosphatase (P09923 whole entry, the tested form may be a part): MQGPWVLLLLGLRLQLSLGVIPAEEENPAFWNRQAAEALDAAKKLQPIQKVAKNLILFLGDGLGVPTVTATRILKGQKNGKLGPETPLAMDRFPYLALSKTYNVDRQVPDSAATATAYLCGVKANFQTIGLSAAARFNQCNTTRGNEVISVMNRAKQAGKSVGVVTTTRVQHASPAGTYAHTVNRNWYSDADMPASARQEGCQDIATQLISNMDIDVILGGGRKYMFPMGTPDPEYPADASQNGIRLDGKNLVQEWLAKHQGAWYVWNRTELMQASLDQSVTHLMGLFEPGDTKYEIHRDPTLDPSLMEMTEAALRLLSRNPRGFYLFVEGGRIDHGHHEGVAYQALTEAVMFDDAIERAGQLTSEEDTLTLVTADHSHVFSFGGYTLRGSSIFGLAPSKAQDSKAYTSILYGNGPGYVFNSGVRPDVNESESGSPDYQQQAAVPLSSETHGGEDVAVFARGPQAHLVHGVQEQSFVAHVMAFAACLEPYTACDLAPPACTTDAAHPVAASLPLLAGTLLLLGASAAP
The target of assay [11] is NACHT, LRR and PYD domains-containing protein 1 (Homo sapiens, UniProt Q9C000). The assay is described as follows: NALP1 inhibitors in yeast, dose response, luminescent (AID 488860). In kind it is functional.
Sequence of NACHT, LRR and PYD domains-containing protein 1 (Q9C000 1-1212 limits assumed): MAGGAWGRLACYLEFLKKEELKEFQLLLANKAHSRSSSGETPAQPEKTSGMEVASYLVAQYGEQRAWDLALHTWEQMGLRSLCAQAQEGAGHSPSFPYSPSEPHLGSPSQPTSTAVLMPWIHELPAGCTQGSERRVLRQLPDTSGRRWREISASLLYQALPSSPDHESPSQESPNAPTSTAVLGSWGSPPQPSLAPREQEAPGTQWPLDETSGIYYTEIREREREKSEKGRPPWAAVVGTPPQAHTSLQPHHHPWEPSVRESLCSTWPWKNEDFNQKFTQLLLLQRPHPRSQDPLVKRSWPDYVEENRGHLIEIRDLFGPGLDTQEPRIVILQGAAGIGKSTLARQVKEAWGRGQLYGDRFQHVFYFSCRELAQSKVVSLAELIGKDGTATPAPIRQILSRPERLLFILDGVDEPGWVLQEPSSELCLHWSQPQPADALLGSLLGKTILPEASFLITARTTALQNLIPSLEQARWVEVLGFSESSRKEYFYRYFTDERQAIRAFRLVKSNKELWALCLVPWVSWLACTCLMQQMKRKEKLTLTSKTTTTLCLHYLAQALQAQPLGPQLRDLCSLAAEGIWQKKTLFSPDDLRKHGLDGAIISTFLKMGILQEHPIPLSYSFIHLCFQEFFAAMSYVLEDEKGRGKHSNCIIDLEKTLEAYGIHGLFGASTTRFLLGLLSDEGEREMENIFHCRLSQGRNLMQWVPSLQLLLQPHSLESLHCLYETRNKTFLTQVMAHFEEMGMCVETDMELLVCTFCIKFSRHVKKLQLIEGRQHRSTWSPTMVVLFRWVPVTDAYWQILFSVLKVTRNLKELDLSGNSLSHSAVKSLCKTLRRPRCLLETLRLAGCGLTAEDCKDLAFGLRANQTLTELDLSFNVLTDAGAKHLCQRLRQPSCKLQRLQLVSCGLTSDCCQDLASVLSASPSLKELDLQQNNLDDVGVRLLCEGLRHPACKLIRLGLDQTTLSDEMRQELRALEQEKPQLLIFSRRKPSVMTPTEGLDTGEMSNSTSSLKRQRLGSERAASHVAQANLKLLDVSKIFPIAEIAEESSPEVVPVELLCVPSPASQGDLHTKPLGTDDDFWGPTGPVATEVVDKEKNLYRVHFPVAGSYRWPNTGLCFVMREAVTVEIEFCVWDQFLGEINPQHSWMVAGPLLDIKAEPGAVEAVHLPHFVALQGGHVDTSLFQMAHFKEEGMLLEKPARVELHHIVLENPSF
Sequence of NACHT, LRR and PYD domains-containing protein 1 (Q9C000 1213-1473 limits assumed): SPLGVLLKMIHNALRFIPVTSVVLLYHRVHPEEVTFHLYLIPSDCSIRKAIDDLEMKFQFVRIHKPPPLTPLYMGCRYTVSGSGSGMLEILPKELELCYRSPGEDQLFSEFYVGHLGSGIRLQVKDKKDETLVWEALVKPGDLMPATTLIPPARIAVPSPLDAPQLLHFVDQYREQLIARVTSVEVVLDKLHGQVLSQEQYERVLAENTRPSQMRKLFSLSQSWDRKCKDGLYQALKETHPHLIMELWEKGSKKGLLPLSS
The test system of a further assay is Saccharomyces cerevisiae. In words: S. cerevisiae Caspase-1/ASC signal blockers IC50, NALP1 inhibitor project selectivity test (AID 488863). In kind it is functional, organism-based.
Assay [12] in a line: fluconazole-exposed Candida albicans growth modulators – fluorescence, retest, confirmation (AID 2467). Format: functional, cell-based.
The target of assay [13] is C-C chemokine receptor type 6 (Homo sapiens, UniProt P51684). In words: antagonism of CCR6 beta-arrestin recruitment – cell-based, luminescent beta-arrestin readout, dose response (AID 504728). In kind it is functional.
Sequence of C-C chemokine receptor type 6 (P51684 whole entry): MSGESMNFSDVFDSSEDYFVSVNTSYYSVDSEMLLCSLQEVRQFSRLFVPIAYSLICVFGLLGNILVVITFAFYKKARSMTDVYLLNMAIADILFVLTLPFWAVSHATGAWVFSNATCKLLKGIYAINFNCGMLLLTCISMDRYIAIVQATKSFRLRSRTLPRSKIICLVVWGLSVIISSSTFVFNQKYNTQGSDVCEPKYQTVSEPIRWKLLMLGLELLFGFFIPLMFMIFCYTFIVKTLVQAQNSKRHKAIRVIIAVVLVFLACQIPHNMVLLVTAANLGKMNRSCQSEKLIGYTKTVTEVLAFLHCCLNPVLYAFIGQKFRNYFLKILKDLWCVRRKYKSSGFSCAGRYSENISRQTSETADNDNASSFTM
A further assay concerns the target Beta-galactosidase (Escherichia coli, UniProt Q8VNN2). The assay is described as follows: detection-enzyme interference by beta-gal modulators – biochemical, E. coli enzyme, set 3, artefact control for CCR6 antagonist project, dose response (AID 504712). In kind it is functional.

Sequence of Beta-galactosidase (Q8VNN2 whole entry): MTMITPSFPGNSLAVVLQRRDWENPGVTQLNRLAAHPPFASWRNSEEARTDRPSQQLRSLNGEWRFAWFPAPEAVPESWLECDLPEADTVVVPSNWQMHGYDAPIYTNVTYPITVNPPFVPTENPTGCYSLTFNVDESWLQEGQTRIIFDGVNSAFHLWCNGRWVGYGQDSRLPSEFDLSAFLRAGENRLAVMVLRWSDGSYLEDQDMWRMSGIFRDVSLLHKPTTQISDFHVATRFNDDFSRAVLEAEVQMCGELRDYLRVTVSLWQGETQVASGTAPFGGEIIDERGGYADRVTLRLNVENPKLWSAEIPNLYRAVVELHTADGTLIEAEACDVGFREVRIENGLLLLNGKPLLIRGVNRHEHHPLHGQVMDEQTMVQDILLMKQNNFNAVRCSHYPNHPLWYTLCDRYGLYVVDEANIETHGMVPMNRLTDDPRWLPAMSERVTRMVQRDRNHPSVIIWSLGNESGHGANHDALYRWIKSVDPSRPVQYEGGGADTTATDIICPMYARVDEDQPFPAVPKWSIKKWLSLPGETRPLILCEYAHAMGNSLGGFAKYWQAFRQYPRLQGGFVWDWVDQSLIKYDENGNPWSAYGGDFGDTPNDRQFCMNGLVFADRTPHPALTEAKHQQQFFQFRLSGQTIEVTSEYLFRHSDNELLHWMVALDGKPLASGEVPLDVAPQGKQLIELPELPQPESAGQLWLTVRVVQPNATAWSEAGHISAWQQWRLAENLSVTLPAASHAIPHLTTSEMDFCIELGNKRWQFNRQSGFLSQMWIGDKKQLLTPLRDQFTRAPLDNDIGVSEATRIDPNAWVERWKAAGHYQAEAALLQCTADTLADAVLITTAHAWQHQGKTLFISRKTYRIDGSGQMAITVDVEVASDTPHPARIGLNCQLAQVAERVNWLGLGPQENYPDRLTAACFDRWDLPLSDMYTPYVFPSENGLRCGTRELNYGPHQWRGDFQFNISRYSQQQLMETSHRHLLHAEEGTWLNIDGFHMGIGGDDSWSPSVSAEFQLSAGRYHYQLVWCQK

`Cc1ccc(C(=O)c2cc([N+](=O)[O-])ccc2N2CCOCC2)c(C)c1`: the IC50 in the assay on J774.A1 was < 0.05 µM (inactive); in [2] it was > 80 µM (inactive). Further, the EC50 was 0.78 µM (inconclusive) with BJ [1], 0.764 µM (active) in the assay on BJ [3], 14.2 µM (active) with BJ [4] and 0.637 µM (active) in assay [5].
`Cc1ccc(N2C(=O)C3C4C=CC(CN=C(S)Nc5ccc(Cl)cc5)(O4)C3C2=O)cc1` (stereo unspecified): the IC50 in assay [6] is given as 42.8 µM (not active); in assay [8] it was 18.9 µM (not active). In assay [7], the AC50 was 25.4 µM (active).
With `CC1(C)CC(=O)N(CC(=O)O)c2ccccc2S1`, in [9], the EC50 is > 50 µM (not active).
For `O=C(COc1ccccc1Cl)N1CCN(c2ccc([N+](=O)[O-])c(N3CCCCC3)c2)CC1`, the IC50 in assay [10] is > 100 µM (inactive).
Regarding `O=C1/C(=C/c2cccnc2)SC(=S)N1C1CCS(=O)(=O)C1` (stereo unspecified), the IC50 in assay [11] is 33.8 µM (active); in the assay on Saccharomyces cerevisiae, 49.1 µM (active). Further, in assay [12], the EC50 was 0.445 µM (active).
For `CC[N+]1(C)CCC(O)(/C=C/c2ccccc2)C(C(=O)/C=C/c2ccccc2)C1` (stereo unspecified), the IC50 in [13] is 39.9 µM (inactive); on Beta-galactosidase, > 66.6 µM (inactive).

A word on the IC50: it is the concentration needed to halve the response being measured. Usually EC50 stands for the concentration needed to bring the measured effect to its halfway point. In general, AC50 refers to the concentration at which the activity in the assay is half-maximal.
